Where a name gives a salt, the structure may show the parent alone.
Legend:
[1] = test system: central nervous system; assay: CCl4 central nervous system toxicity in rats; assay type: in vivo, rat; conditions: pretreatment
[2] = test system: platelet phospholipase A2; conditions: cited from earlier work
[3] = test system: L1210 murine leukemia cells; assay: Inhibition of L1210 leukemia cell growth in vitro; assay type: cell-based, mouse
Protocol: Similar in vitro experiments were conducted with cholesteryl succinate tris salt and alpha-TS tris salt.

[4] = test system: male Sprague-Dawley rats; assay: CCl4 induced lethality in rats; assay type: in vivo, rat; conditions: for Survival after CCl4 treatment: 100 mg/kg ip 24 h prior, […] CCl4 oral
[5] = test system: liver; assay: CCl4 induced hepatotoxicity in rats (serum AST/ALT); assay type: in vivo, rat
Procedure, shortened: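 Male Sprague-Dawley rats received test compounds i.p. at 100 mg/kg 20–24 h before oral CCl4 (2.9 g/kg or 1 g/kg). Serum AST and ALT were measured 48 h after CCl4 challenge.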

[6] = test system: L1210 leukemia cells; assay: Doxorubicin in L1210 leukemia bearing CDF1 mice; assay type: in vivo, mouse; conditions: alpha-TS tris salt 100 mg/kg ip
Protocol: The experiments were conducted in accordance with NCI Protocol 1,100. FIGS. 8a-d show the experimental results obtained when male CDF1 mice (n=6) received either vehicle only or 100mg/kg body weight i.p. dose of either alpha-TS or cholesteryl succinate 20 hours prior to DOX administration. FIGS. 8a-d respectively show the results obtained when the mice received 10, 15, 20, and 25 mg DOX/kg body weight. […] FIGS. 9a-d show the experimental results obtained when male CDF1 mice ([…]) were injected (i.p.) with 10^6 murine L1210 leukemia cells followed immediately by an injection of alpha-TS tris salt (100 mg/kg, i.p.) or saline injection (vehicle), and twenty hours later (Day=0) each mouse in three of the groups was i.p. injected with 15, 20, or 25 mg DOX/kg body weight ([…]). Survival was monitored for twenty days.

[7] = Tissue distribution of alpha-tocopherol and alpha-tocopherol ester in rats; assay type: in vivo, rat; conditions: 48 h after single dose
[8] = test system: Sprague-Dawley rats; assay: Paraquat lethality in rats; conditions: rat, in vivo
Protocol: Rats received a 100 mg/kg (ip) dose of alpha-TS twenty four hours prior to a 40 mg/kg (ip) insult of paraquat which is a lung specific toxic agent. The rats also received a 100 mg/kg (ip) dose of alpha-TS each day after the paraquat insult.

[9] = test system: liver; assay: Acetaminophen-induced hepatotoxicity in rats (AST/ALT); assay type: in vivo, rat
Protocol: In vivo experiments were performed to determine if alpha-TS administration protects the liver from the hepatotoxic effects of acetaminophen. Acetaminophen is a commonly used analgesic that is metabolized to a reactive intermediate. […] The other group of male Sprague-Dawley rats received only the acetaminophen challenge. Forty eight hours after the challenge the rats were sacrificed and the levels of aspartate aminotransferase (AST) and alanine aminotransferase (ALT) were measured.
FIGS. 10 and 11 show the results of in vivo experiments where male Sprague-Dawley rats were given an oral dose of 15 or 30 mg THA/kg body weight, respectively. In the experiments, one group of rats was provided with an i.p. dose of 100 mg cholesteryl succinate tris salt/kg body weight 20 hours prior to the THA challenge, another group of rats only received the THA challenge, and the last group of rats acted as a control and were not challenged. The serum AST levels were determined with respect to time after the THA challenge.

[10] = test system: variety of cell types; conditions: cited from earlier work
[11] = 100 mg/kg ip 20 h prior, 48 h after 1 g/kg CCl4 (Table 27), listed as Alpha Tocopheryl Succinate free acid
[12] = PEG 400 vehicle, ip 20 h prior, 24 hrs after 2 g/kg CCl4 (Table 32)
[13] = PEG 400 vehicle, ip 20 h prior, 48 hrs after 2 g/kg CCl4 (Table 32)
[14] = PEG 400 vehicle, ip 20 h prior, 72 hrs after 2 g/kg CCl4 (Table 32)
[15] = rat plasma, 100 mg/kg ip 24 h prior, 48 h after […] CCl4
[16] = 100 mg/kg ip 24 h prior, acetaminophen 2.5 g/kg
[17] = 50 mg/kg ip, 48 h after 1 g/kg CCl4 (Table 28)
[18] = 100 mg/kg ip 20 h prior, 48 h after 1 g/kg CCl4 (Table 20)
[19] = 100 mg/kg ip (dihydrocholesterol 80 + sodium sulfate 30 mg/kg), 48 h after 1 g/kg CCl4 (Table 35)
[20] = 100 mg/kg ip, 30 min after CCl4 1 g/kg (Table 29)
[21] = 100 mg/kg ip, 30 min prior to CCl4 1 g/kg (Table 29)
[22] = 100 mg/kg ip, 20 hours prior to CCl4 1 g/kg (Table 29)
[23] = 100 mg/kg ip, 48 h after 1 g/kg CCl4 (Table 28)
[24] = 100 mg/kg ip, 48 h after 1 g/kg CCl4 (Table 31)
[25] = 100 mg/kg ip, 48 h after 1 g/kg CCl4 (Table 37)
[26] = 100 mg/kg ip, 48 h after 1 g/kg CCl4 (Table 40)
[27] = 100 mg/kg ip, PEG 400 vehicle, 48 h after 1 g/kg CCl4 (Table 34)
[28] = 100 mg/kg ip, immediately prior to CCl4 1 g/kg (Table 29)
[29] = 100 mg/kg oral 20 h prior, 48 h after 1 g/kg CCl4 (Table 20)
[30] = 200 mg/kg ip, 48 h after 1 g/kg CCl4 (Table 28)
[31] = 100 mg/kg ip 20 hrs prior, 48 h after 2 g/kg AP (Table 23)

Cc1c(C)c2c(c(C)c1OC(=O)CCC(=O)O)CC[C@@](C)(CCC[C@H](C)CCC[C@H](C)CCCC(C)C)O2 [alpha-TS, d-alpha-tocopheryl succinate]
recovery from acute CNS toxic manifestations of CCl4 [1]: several days before rats which are not treated with alpha-TS
inhibition of platelet phospholipase A2 activity [2]: inhibits platelet phospholipase A2 activity
minimal effective concentration ([3]; Mus musculus, L1210, free acid, 72 hours, read-out: concentration that significantly suppresses growth rate of L1210 cells): > 100 µM
Survival after CCl4 treatment [4]: Yes
Protection from CCl4 ([4]; 100 mg/kg ip (Table 5)): Yes
Days Survived after CCl4 ([4]; 100 mg/kg ip, 1 hour after CCl4 and daily thereafter): 2 days
Days Survived after CCl4 ([4]; 100 mg/kg ip, 1 hour prior and daily thereafter): > 7 days
Days Survived After CCl4 Treatment ([4]; 100 mg/kg ip, 24 h prior, CCl4 3.8 g/kg): > 7 days
Days Survived After CCl4 Treatment ([4]; 100 mg/kg ip, 24 h prior, CCl4 5.0 g/kg): 2 days
Days Survived After CCl4 Treatment ([4]; 100 mg/kg ip, 24 h prior, CCl4 […]): > 7 days
Days Survived after CCl4 ([4]; 100 mg/kg ip, single dose 24 h prior to CCl4 […]): > 7 days
cytoprotection against CCl4 lethality ([4]; 100 mg/kg oral): not observed
Protection from CCl4 ([4]; 100 mg/kg oral (Table 5)): No
Days Survived After CCl4 Treatment ([4]; 100 mg/kg oral, 24 h prior, CCl4 2.2 g/kg): > 7 days
Days Survived After CCl4 Treatment ([4]; 100 mg/kg oral, 24 h prior, CCl4 3.8 g/kg): 2 days
Days Survived After CCl4 Treatment ([4]; 100 mg/kg oral, 24 h prior, CCl4 5.0 g/kg): 2 days
Days Survived After CCl4 Treatment ([4]; 100 mg/kg oral, 24 h prior, CCl4 […]): 3 days
Days Survived After CCl4 Treatment ([4]; 25 m/kg, single dose 24 h prior): > 7 days
incubation time required for cytoprotection ([4]; single dose): greater than 12 hours
ALT [5, 11]: 1.08 ± 0.23 10^3 units/L
AST [5, 11]: 2.06 ± 0.53 10^3 units/L
Serum AST Levels [5, 12]: .38 ± .15 10^3 units/L
Serum AST Levels [5, 13]: .39 ± .22 10^3 units/L
Serum AST Levels [5, 14]: .14 ± .06 10^3 units/L
ALT [5, 15]: 631 ± 17 Units/L
AST [5, 15]: 3,430 ± 1500 Units/L
survival of DOX treated tumor bearing mice (FIG. 9b) ([6]; DOX 10 mg/kg): no effect on the survival of DOX treated animals
survival of tumor bearing mice at higher DOX ([6]; DOX 15 and 25 mg/kg): significant protection from DOX
alpha-TS detection in tissue [7]: could not be detected
survival time of paraquat exposed rats [8]: 6 days
ALT [9, 16]: 432 ± 188 Units/L
AST [9, 16]: 1,659 ± 607 Units/L
protection against carcinogenic effects of radiation and cancer causing chemicals [10]: protects a variety of cell types against the carcinogenic effects of radiation and cancer causing chemicals

CC(C)CCC[C@@H](C)[C@H]1CC[C@H]2[C@@H]3CC=C4C[C@@H](OC(=O)CCC(=O)O)CC[C@]4(C)[C@H]3CC[C@]12C [Cholesteryl Succinate tris salt]
growth rate of L1210 cells (FIG. 7) [3]: significantly suppress the growth rate of L1210 cells
Survival after CCl4 treatment [4]: Yes
ALT [5, 17]: 0.16 ± 0.11 10^3 units/L
AST [5, 17]: 0.56 ± 0.35 10^3 units/L
Serum AST Levels ([5]; 100 mg/kg ip 20 h prior, 24 hrs after 2 g/kg CCl4 (Table 26), tris salt): 0.57 ± 0.38 10^3 units/L
ALT [5, 18]: 0.122 ± 0.034 10^3 units/L
AST [5, 18]: 0.41 ± 0.08 10^3 units/L
Serum AST Levels ([5]; 100 mg/kg ip 20 h prior, 48 hrs after 2 g/kg CCl4 (Table 26), tris salt): 0.19 ± 0.07 10^3 units/L
ALT [5, 19]: 0.04 ± 0.02 10^3 units/L
AST [5, 19]: 0.22 ± 0.06 10^3 units/L
ALT [5, 20]: 1.50 ± 0.79 10^3 units/L
AST [5, 20]: 7.87 ± 4.09 10^3 units/L
ALT [5, 21]: 2.12 ± 1.43 10^3 units/L
AST [5, 21]: 9.09 ± 4.38 10^3 units/L
ALT [5, 22]: 0.04 ± 0.01 10^3 units/L
AST [5, 22]: 0.12 ± 0.02 10^3 units/L
ALT [5, 23]: 0.04 ± 0.02 10^3 units/L
AST [5, 23]: 0.22 ± 0.06 10^3 units/L
ALT [5, 24]: 0.02 ± 0 10^3 units/L
AST [5, 24]: 0.10 ± 0.03 10^3 units/L
ALT [5, 25]: 0.09 ± 0.01 10^3 units/L
AST [5, 25]: 0.21 ± 0.03 10^3 units/L
ALT [5, 26]: 0.04 ± 0.01 10^3 units/L
AST [5, 26]: 0.12 ± 0.02 10^3 units/L
ALT [5, 27]: 0.07 ± 0.03 10^3 units/L
AST [5, 27]: 0.29 ± 0.22 10^3 units/L
ALT [5, 28]: 1.12 ± 1.38 10^3 units/L
AST [5, 28]: 6.69 ± 1.87 10^3 units/L
SGOT Levels ([5]; 100 mg/kg ip, 48 h after 1.0 g/kg CCl4): 0.10 ± 0.03 10^3 units/L
ALT [5, 29]: 4.09 ± 1.191 10^3 units/L
AST [5, 29]: 12.51 ± 41.31 10^3 units/L
ALT [5, 30]: 0.03 ± 0.01 10^3 units/L
AST [5, 30]: 0.16 ± 0.08 10^3 units/L
Serum AST Levels [5, 12]: .19 ± .10 10^3 units/L
Serum AST Levels [5, 13]: .10 ± .02 10^3 units/L
Serum AST Levels [5, 14]: .10 ± .02 10^3 units/L
inhibition in vivo at 100 mg/kg ([5]; Rattus norvegicus, ip, 48 h, read-out: % Hepatoprotection): 100%
protection against CCl4 hepatotoxicity (in words) ([5]; rats, serum enzyme levels): complete protection
Serum ALT Level [9, 31]: 158 ± 77 Units/L
Serum AST Level [9, 31]: 785 ± 495 Units/L

Reference: US5336485A, “Method for protecting animals against tacrine induced cytotoxic injury using sterol compounds” (priority 1993, dated 1994)
